Where no end group is shown, it is not given here. [ ]: non-standard residue; d: D form. 1Nal = N[C@@H](Cc1cccc2ccccc12)C(=O)O; Aib = CC(C)(N)C(=O)O
Key:
DIO mice = assay: Oral glucose tolerance test after 2-week treatment in DIO mice; assay type: in vivo
Protocol: Fifty-six hours after the last injection of compound in the DIO study above the animals were subjected to an oral glucose tolerance test. In short, mice were fasted for 16 hours prior to the start of the glucose tolerance test. At time 0, animals are given 2 g/kg dextrose by oral gavage. Blood is collected by tail bleeding taken 0, 15, 30, 60 and 120 minutes after glucose challenge. Glucose concentration is measured by glucometer.

[1] = tested on: diet-induced obese (DIO) mice; assay: Effects on food intake, body weight and body composition in DIO mice; assay type: in vivo; conditions: for Fat mass loss (g fat weight change for 14 days) / Total food intake (g total for 14 days) / Overall weight loss (g weight change for 14 days): DIO mice
Protocol: Effects on Food Intake, Body Weight and Body Composition in Diet-Induced Obese (DIO) Mice
Three to four months old male diet-induced obese (DIO) mice are used. Animals are individually housed in a temperature-controlled (24° C.) facility with a 12 hour light/dark cycle (lights on 22:00), and have free access to food and water. After 2 weeks acclimation to the facility, mice are randomized to treatment groups (n=8-10/group) so that each group has similar mean body weight and fat mass. Before the experiment, mice are subcutaneously (sc) injected with vehicle solution and weighed for 7 days to acclimate them to the procedures.
Vehicle or peptide analog (dose range 10-100 nmol/Kg) dissolved in vehicle is administered by sc injection to ad libitum fed DIO mice 30-90 minutes prior to the onset of the dark cycle […] for 2 to 4 weeks. Body weight and the weight of food plus the hopper are measured at the same time. Food consumed in the last 24 hours is calculated by subtracting current weight of food plus the hopper from that of the previous day. Absolute changes in body weight are calculated by subtracting the body weight of the animal prior to the first injection. On days −1 and 14, total fat mass is measured by nuclear magnetic resonance (NMR) using an Echo Medical System (Houston, Tex.) instrument. Fat free mass is calculated by subtracting fat mass from total body weight.

Which “glucose excursion following an oral glucose load” value (DIO mice; DIO mice, summary of Tables 7a and 7b) does the source give for “Aib^2, Aib^13, Nal^22, Aib^29, Cys^43(PEG20K), Cys^44 (PEG20K)-GIP (Y[Aib]EGTFTSDYSI[Aib]LDKIAQRA[1Nal]VQWLIA[Aib]KGKKQEWKHQITQC(PEG 20 kDa)C(PEG 20 kDa)-NH2) [Example 4]” here?
The value was “significantly reduced”.

And the “Glucose AUC, MEAN” value (DIO mice; Table 7a, OGTT 2 g/kg dextrose, 56 h after last injection, 10 nmol/Kg)?
The value was 11725 mg·min/dL.

And the “Glucose AUC, MEAN” value (DIO mice; Table 7a, OGTT, 30 nmol/Kg)?
The value was 10907 mg·min/dL.

What about the “Glucose AUC, MEAN” value (DIO mice; Table 7b, OGTT, 10 nmol/Kg) of the same substance?
Its value is 13719 mg·min/dL.

What about the “cumulative food intake and body weight compared to vehicle-treated mice” value ([1]; 14-day DIO mouse studies, summary of Tables 6a and 6b) of the same substance?
Its value is “decreased”.

What about the “Fat mass loss (g fat weight change for 14 days)” value ([1]; Table 6a, 10 nmol/Kg) of the same substance?
Its value is -3.6 ± 1.1 g.

What about the “Total food intake (g total for 14 days)” value ([1]; Table 6a, 10 nmol/Kg) of the same substance?
The value was 28.4 ± 1.8 g.

What about the “Overall weight loss (g weight change for 14 days)” value ([1]; Table 6a, 10 nmol/Kg sc every 3 days) of the same substance?
Its value is -4.5 ± 0.3 g.

And the “Fat mass loss (g fat weight change for 14 days)” value ([1]; Table 6a, 30 nmol/Kg)?
The value was -4.7 ± 0.4 g.

What about the “Total food intake (g total for 14 days)” value ([1]; Table 6a, 30 nmol/Kg) of the same substance?
Its value is 25.5 ± 2.6 g.

And the “Overall weight loss (g weight change for 14 days)” value ([1]; Table 6a, 30 nmol/Kg sc every 3 days)?
The value was -6.0 ± 0.4 g.

What about the “Fat mass loss (g fat weight change for 14 days)” value ([1]; Table 6b, 10 nmol/Kg) of the same substance?
Its value is -3.6 ± 0.3 g.

And the “Overall weight loss (g weight change for 14 days)” value ([1]; Table 6b, 10 nmol/Kg)?
Its value is -4.9 ± 0.4 g.

What about the “Total food intake (g total for 14 days)” value ([1]; Table 6b, 10 nmol/Kg) of the same substance?
Its value is 26.9 ± 1.5 g.

Reference: US8815811B2, “Peptides and methods for their preparation and use” (Eli Lilly and Company, priority 2010, dated 2014)
